From patent US12624003B2, “Carboxylic acid containing indanyl compounds for the treatment of neurodegenerative diseases” (Celgene Corporation, priority 2020, dated 2026)

Each molecule was assayed against T1, S1P5 (Homo sapiens, UniProt Q9H228) (assay: [35S]-GTPγS functional binding assay on CHO-S1P5 membranes). Conditions: membranes of CHO cells expressing recombinant S1P5 receptors; measure of S1P5 agonism.
T1 construct: expressed in transfected cells; host or cells: CHO cells (membranes)
Assay type: biochemical
Protocol: CHO cells expressing recombinant S1P5 receptors were cultured in 500 cm^2 culture trays and, once confluent, rinsed and detached with cell-lifting buffer (10 mM HEPES, 154 mM NaCl, 6.85 mM EDTA, pH 7.4). Cells were then pelleted by centrifugation, resuspended, and homogenized in membrane preparation buffer (10 mM HEPES and 10 mM EDTA, pH 7.4) using a Polytron PT 1200E homogenizer (Kinematica, Luzern, Switzerland). Cellular proteins were pelleted by centrifugation at 48,000×g at 4° C. for 30 minutes. The resulting supernatant was discarded, and the pellet was re-suspended again in membrane preparation buffer, homogenized for a second time, and then centrifuged again as described above. The final cellular protein pellet was suspended in ice cold resuspension buffer (10 mM HEPES and 0.1 mM EDTA, pH 7.4), divided into aliquots, and stored at −80° C. until use.
Functional binding assays for [^35S]-GTPγS were performed in 96-well non-binding surface plates with a final volume of 200 μL. The test compounds were serially diluted in DMSO and added to assay plates using a Tecan D300E digital printer with a total volume of 0.4 μL. The control sphingosine-1-phosphate (S1P) was prepared separately by preparing a 400 μM stock solution from a 100 nmol pellet of SIP in 10 mM Na2CO3 with 2% s-cyclodextrin. The serial dilution of S1P was done using complete assay buffer (20 mM HEPES, 10 mM MgCl2, 100 mM NaCl, 1 mM EDTA, 0.1% fatty acid free bovine serum albumin (BSA), and 30 μg/mL saponin, pH 7.4) and transferred to wells already containing 0.4 μL DMSO. All the wells were then loaded to a total volume of 40 μL of complete assay buffer, except the non-specific binding (NSB) wells. For NSB wells, 40 μL/well of 50 μM GTPγS (Sigma Aldrich, cat #G8634, St. Louis, MO) was added to wells containing 0.4 μL of DMSO. The assay was started by the addition of 120 μL/well of CHO-S1P receptor membrane solution containing 40 μg/mL of membrane protein, 16.67 μM guanosine diphosphate (GDP; Sigma Aldrich, cat #G7127, St. Louis, MO), and 2.5 mg/mL of WGA PVT SPA beads in complete buffer. Assay plates were then sealed and incubated at room temperature with gentle agitation for 30 minutes. Next, 40 μL/well of 1 nM of [^35S]-GTPγS (PerkinElmer, cat #NEG030X250UC, Waltham, MA) in basic assay buffer (20 mM HEPES, 10 mM MgCl2, 100 mM NaCl, and 1 mM EDTA, pH 7.4) was added to the assay plates to yield a final concentration of […] and the plates were further incubated for 40 minutes at room temperature with gentle agitation. The assay was terminated by centrifugation of the plates at 1000 rpm for 3 minutes using an Eppendorf 5810R centrifuge (Eppendorf, Hamburg, Germany) and G protein bound radioactivity was quantitated using a MicroBeta2 microplate scintillation counter (PerkinElmer, Waltham, MA). As G protein bound radioactivity directly correlates to receptor activation and coupling to the G protein, this assay is a measure of S1P5 agonism.

T1 sequence (Q9H228 whole entry, species assumed): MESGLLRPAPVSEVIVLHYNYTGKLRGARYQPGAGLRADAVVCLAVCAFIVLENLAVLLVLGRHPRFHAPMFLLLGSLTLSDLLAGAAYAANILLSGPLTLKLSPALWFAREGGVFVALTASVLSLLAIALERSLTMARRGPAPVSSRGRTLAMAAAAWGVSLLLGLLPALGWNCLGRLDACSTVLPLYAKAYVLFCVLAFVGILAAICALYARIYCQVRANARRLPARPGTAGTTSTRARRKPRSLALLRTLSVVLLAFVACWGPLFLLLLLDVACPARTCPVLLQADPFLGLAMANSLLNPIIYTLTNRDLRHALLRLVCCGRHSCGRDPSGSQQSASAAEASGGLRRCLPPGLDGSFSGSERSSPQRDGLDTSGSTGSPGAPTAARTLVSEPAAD

EC50	Compound
100 to 1000 nM	O=C(O)[C@H]1[C@@H]2CN(C3CCc4cc(C#Cc5cccc(F)c5)ccc43)C[C@@H]21 (stereo partly drawn) [Compound 16, (1R,5S,6r)-3-(5-((3-fluorophenyl)ethynyl)-2,3-dihydro-1H-inden-1-yl)-3-azabicyclo[3.1.0]-hexane-6-carboxylic acid]
≤ 10 nM	O=C(O)C1CN(C2CCc3cc(C#Cc4cc(F)ccc4F)ccc32)C1 (single isomer, unassigned) [Compound 20, 1-(5-((2,5-difluorophenyl)ethynyl)-2,3-dihydro-1H-inden-1-yl)azetidine-3-carboxylic acid]
≤ 10 nM	O=C(O)C1CCN(C2CCc3cc(CCc4cccc(Cl)c4)ccc32)CC1 (single isomer, unassigned) [Compound 27a, 1-(5-(3-chlorophenethyl)-2,3-dihydro-1H-inden-1-yl)piperidine-4-carboxylic acid]
≤ 10 nM	O=C(O)C1CN(C2CCc3cc(-c4ccc(C5CC5)c(F)c4)ccc32)C1 (single isomer, unassigned) [Compound 31a, 1-(5-(4-cyclopropyl-3-fluorophenyl)-2,3-dihydro-1H-inden-1-yl)azetidine-3-carboxylic acid]
10 to 100 nM	O=C(O)C1CCN(C2CCc3cc(C#Cc4ccccc4F)ccc32)CC1 (single isomer, unassigned) [Compound 6a, 1-(5-((2-fluorophenyl)ethynyl)-2,3-dihydro-1H-inden-1-yl)piperidine-4-carboxylic acid]
10 to 100 nM	O=C(O)C1CCN(C2CCc3cc(C#Cc4cccc(F)c4)ccc32)CC12CC2 (stereo not shown) [Compound 12, 5-(5-((3-fluorophenyl)ethynyl)-2,3-dihydro-1H-inden-1-yl)-5-azaspiro[2.5]octane-8-carboxylic acid]
≤ 10 nM	O=C(O)C1CCN(C2CCc3cc(-c4ccc(C5CC5)c(Cl)c4)ccc32)CC1 (single isomer, unassigned) [Compound 32b, 1-(5-(3-chloro-4-cyclopropylphenyl)-2,3-dihydro-1H-inden-1-yl)piperidine-4-carboxylic acid]
100 to 1000 nM	COc1cc(OC)cc(-c2ccc3c(c2)CCC3N2CCC(C(=O)O)CC2)c1 (single isomer, unassigned) [Compound 40, 1-(5-(3,5-dimethoxyphenyl)-2,3-dihydro-1H-inden-1-yl)piperidine-4-carboxylic acid]
1000 to 10000 nM	O=C(O)[C@@H]1CCCCN1C1CCc2cc(C#Cc3cccc(F)c3)ccc21 (single isomer, unassigned) [Compound 8b]
1000 to 10000 nM	O=C(O)[C@H]1CCCCN1C1CCc2cc(C#Cc3cccc(F)c3)ccc21 (single isomer, unassigned) [Compound 9a]
≤ 10 nM	O=C(O)C1(F)CCN(C2CCc3cc(C#Cc4c(Cl)cccc4Cl)ccc32)CC1 (single isomer, unassigned) [Compound 3a, 1-(5-((2,6-dichlorophenyl)ethynyl)-2,3-dihydro-1H-inden-1-yl)-4-fluoropiperidine-4-carboxylic acid]
100 to 1000 nM	O=C(O)C1CCN(C2CCc3cc(-c4cccc5c4CCC5)ccc32)CC1 (single isomer, unassigned) [Compound 45, 1-(2,2′,3,3′-tetrahydro-1H,1′H-[4,5′-biinden]-1′-yl)piperidine-4-carboxylic acid]
10 to 100 nM	O=C(O)C1CC2(C1)CN(C1CCc3cc(C#Cc4c(Cl)cccc4Cl)ccc31)C2 (stereo not shown) [Compound 21, 2-(5-((2,6-dichlorophenyl)ethynyl)-2,3-dihydro-1H-inden-1-yl)-2-azaspiro[3.3]heptane-6-carboxylic acid]
≤ 10 nM	O=C(O)[C@]12C[C@H]1CN(C1CCc3cc(C#Cc4c(Cl)cccc4Cl)ccc31)C2 (stereo partly drawn) [Compound 15, (1R,5R)-3-(5-((2,6-dichlorophenyl)ethynyl)-2,3-dihydro-1H-inden-1-yl)-3-azabicyclo[3.1.0]-hexane-1-carboxylic acid]
100 to 1000 nM	O=C(O)C1CCN(C2CCc3cc(CCc4cccc(F)c4)ccc32)CC1 (single isomer, unassigned) [Compound 26a, 1-(5-(3-fluorophenethyl)-2,3-dihydro-1H-inden-1-yl)piperidine-4-carboxylic acid]
≤ 10 nM	O=C(O)[C@@H]1CCN(C2CCc3cc(-c4ccc(C5CC5)c(F)c4)ccc32)C1 (single isomer, unassigned) [Compound 36b]

EC50	Compound
10 to 100 nM	O=C(O)C1CCN(C2CCc3cc(CCc4ccccc4Cl)ccc32)CC1 (single isomer, unassigned) [Compound 25a, 1-(5-(2-chlorophenethyl)-2,3-dihydro-1H-inden-1-yl)piperidine-4-carboxylic acid]
10 to 100 nM	O=C(O)[C@H]1CCN(C2CCc3cc(C#Cc4cccc(F)c4)ccc32)C1 (single isomer, unassigned) [Compound 13a]
100 to 1000 nM	CC1(C)CN(C2CCc3cc(C#Cc4cccc(F)c4)ccc32)CCC1C(=O)O (stereo not shown) [Compound 5, 1-(5-((3-fluorophenyl)ethynyl)-2,3-dihydro-1H-inden-1-yl)-3,3-dimethylpiperidine-4-carboxylic acid]
≤ 10 nM	O=C(O)C1(F)CCN(C2CCc3cc(C#Cc4c(Cl)cccc4Cl)ccc32)CC1 (single isomer, unassigned) [Compound 3b, 1-(5-((2,6-dichlorophenyl)ethynyl)-2,3-dihydro-1H-inden-1-yl)-4-fluoropiperidine-4-carboxylic acid]
10 to 100 nM	O=C(Cc1c(Cl)cccc1Cl)c1ccc2c(c1)CCC2N1CCC(C(=O)O)CC1 (single isomer, unassigned) [Compound 23, 1-(5-(2-(2,6-dichlorophenyl)acetyl)-2,3-dihydro-1H-inden-1-yl)piperidine-4-carboxylic acid]
≤ 10 nM	O=C(O)C1CN(C2CCc3cc(-c4ccc(C5CC5)c(F)c4)ccc32)C1 (single isomer, unassigned) [Compound 31b, 1-(5-(4-cyclopropyl-3-fluorophenyl)-2,3-dihydro-1H-inden-1-yl)azetidine-3-carboxylic acid]
10 to 100 nM	O=C(O)C1CCN(C2CCc3cc(-c4ccc5c(c4)CCC5)ccc32)CC1 (single isomer, unassigned) [Compound 44, 1-(2,2′,3,3′-tetrahydro-1H,1′H-[5,5′-biinden]-1-yl)piperidine-4-carboxylic acid]
100 to 1000 nM	O=C(O)[C@@H]1CCCN(C2CCc3cc(C#Cc4cccc(F)c4)ccc32)C1 (single isomer, unassigned) [Compound 7b]
100 to 1000 nM	O=C(O)C1CCN(C2CCc3cc(C#Cc4cccc(F)c4)ccc32)CC1 (single isomer, unassigned) [Compound 4a, 1-(5-((3-fluorophenyl)ethynyl)-2,3-dihydro-1H-inden-1-yl)piperidine-4-carboxylic acid]
100 to 1000 nM	O=C(O)C1C2CCC1CN(C1CCc3cc(C#Cc4cccc(F)c4)ccc31)C2 [Compound 10, (1R,5S,8s)-3-(5-((3-fluorophenyl)ethynyl)-2,3-dihydro-1H-inden-1-yl)-3-azabicyclo[3.2.1]-octane-8-carboxylic acid]
1000 to 10000 nM	O=C(O)[C@H]1CCCCN1C1CCc2cc(C#Cc3cccc(F)c3)ccc21 (single isomer, unassigned) [Compound 9b]
10 to 100 nM	O=C(O)[C@H]1CCN(C2CCc3cc(-c4ccc(C5CC5)c(Cl)c4)ccc32)C1 (single isomer, unassigned) [Compound 35a]
≤ 10 nM	O=C(O)[C@@H]1CCN(C2CCc3cc(-c4ccc(C5CC5)c(F)c4)ccc32)C1 (single isomer, unassigned) [Compound 36a]
≤ 10 nM	O=C(O)C1CCN(C2CCc3cc(C#Cc4ccccc4F)ccc32)CC1 (single isomer, unassigned) [Compound 6b, 1-(5-((2-fluorophenyl)ethynyl)-2,3-dihydro-1H-inden-1-yl)piperidine-4-carboxylic acid]
100 to 1000 nM	O=C(O)C1CCN(C2CCc3cc(-c4ccc5c(c4)CCO5)ccc32)CC1 (single isomer, unassigned) [Compound 43, 1-(5-(2,3-dihydrobenzofuran-5-yl)-2,3-dihydro-1H-inden-1-yl)piperidine-4-carboxylic acid]
